Patent US6956035B2, “Isoquinoline derivatives and methods of use thereof” (Inotek Pharmaceuticals Corporation, priority 2001, dated 2005)
Marks after values point to notes of the source that are not given here.

Experiments:
PARS = target: T1, PARS (Mus musculus, UniProt P11103); experiment: PARS activation in peroxynitrite-stimulated cultured RAW macrophages (whole-cell assay, 3H-NAD+ incorporation); type: cell-based; conditions: cultured murine macrophages; for inhibition at 0.1 µM / % PARS inhibition at 100 nM: 100 nM
T1 construct: endogenous in cells; host or cells: RAW mouse macrophages
T1 sequence (P11103 whole entry): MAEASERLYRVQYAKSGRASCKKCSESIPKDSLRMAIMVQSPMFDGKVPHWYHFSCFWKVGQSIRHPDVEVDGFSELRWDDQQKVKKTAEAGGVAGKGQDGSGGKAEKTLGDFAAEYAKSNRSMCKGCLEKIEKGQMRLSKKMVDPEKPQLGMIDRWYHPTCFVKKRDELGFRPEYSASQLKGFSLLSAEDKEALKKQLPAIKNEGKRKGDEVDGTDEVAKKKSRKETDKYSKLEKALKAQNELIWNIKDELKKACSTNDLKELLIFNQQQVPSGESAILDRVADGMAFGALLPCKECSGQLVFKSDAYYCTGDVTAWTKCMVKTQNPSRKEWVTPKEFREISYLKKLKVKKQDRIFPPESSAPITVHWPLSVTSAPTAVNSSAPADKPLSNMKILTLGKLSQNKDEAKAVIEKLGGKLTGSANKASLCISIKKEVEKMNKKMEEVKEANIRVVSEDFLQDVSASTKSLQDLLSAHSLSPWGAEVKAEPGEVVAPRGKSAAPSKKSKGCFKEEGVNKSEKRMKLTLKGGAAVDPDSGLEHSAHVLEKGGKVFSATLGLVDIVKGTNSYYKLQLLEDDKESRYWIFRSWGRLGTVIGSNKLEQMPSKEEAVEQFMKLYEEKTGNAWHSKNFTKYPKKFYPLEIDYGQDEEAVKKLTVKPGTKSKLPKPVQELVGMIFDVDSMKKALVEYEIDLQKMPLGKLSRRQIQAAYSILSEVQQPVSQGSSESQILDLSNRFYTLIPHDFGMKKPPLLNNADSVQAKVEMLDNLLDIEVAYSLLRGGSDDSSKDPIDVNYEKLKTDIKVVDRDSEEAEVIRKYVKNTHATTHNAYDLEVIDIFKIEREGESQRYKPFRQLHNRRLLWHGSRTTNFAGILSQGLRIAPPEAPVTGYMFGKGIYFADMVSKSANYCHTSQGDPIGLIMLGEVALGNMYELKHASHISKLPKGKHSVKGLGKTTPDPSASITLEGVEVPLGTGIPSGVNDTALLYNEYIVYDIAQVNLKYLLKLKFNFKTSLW
Description: RAW mouse macrophages were cultured in DMEM medium with high glucose and supplemented with 10% fetal bovine serum. Cells were used at 80% confluence in 12-well plates. Cells were pretreated with various concentrations (100 nM-1 μM) of an Isoquinoline Derivative for 10 min. Peroxynitrite, a prototypical oxidant which induces DNA single strand breakage, was used to induce PARS activation. Peroxynitrite was diluted in phosphate buffered saline (PBS) (pH 11.0) and added to the cells in a bolus of 50 μl. Cells were then incubated for 20 min. […] Following an incubation in assay buffer, (10 min at 37° C.), PARS activity was measured as follows: 200 μl ice cold 50% w/v TCA was added and the samples were incubated for 4 hours at 4° C. Samples were then spun (10 min@10,000 g) and pellets washed twice with ice cold 5% w/v TCA and solubilized overnight in 250 μl 2% w/v SDS/0.1 N NaOH at 37° C. The contents of the tubes were added to 6.5 ml ScintiSafe Plus scintillation liquid (Fisher Scientific) and radioactivity was determined using a liquid scintillation counter (Wallac, Gaithersburg, Md.).

purified PARS enzyme = target: T2, purified PARS enzyme (Homo sapiens, UniProt P09874); experiment: Purified PARS enzyme inhibition assay (Trevigen kit, 96 well ELISA plates); type: biochemical; conditions: starred values: tested in purified enzyme assay
T2 construct: purchased Trevigen, Gaithersburg, Md
T2 sequence (P09874 whole entry): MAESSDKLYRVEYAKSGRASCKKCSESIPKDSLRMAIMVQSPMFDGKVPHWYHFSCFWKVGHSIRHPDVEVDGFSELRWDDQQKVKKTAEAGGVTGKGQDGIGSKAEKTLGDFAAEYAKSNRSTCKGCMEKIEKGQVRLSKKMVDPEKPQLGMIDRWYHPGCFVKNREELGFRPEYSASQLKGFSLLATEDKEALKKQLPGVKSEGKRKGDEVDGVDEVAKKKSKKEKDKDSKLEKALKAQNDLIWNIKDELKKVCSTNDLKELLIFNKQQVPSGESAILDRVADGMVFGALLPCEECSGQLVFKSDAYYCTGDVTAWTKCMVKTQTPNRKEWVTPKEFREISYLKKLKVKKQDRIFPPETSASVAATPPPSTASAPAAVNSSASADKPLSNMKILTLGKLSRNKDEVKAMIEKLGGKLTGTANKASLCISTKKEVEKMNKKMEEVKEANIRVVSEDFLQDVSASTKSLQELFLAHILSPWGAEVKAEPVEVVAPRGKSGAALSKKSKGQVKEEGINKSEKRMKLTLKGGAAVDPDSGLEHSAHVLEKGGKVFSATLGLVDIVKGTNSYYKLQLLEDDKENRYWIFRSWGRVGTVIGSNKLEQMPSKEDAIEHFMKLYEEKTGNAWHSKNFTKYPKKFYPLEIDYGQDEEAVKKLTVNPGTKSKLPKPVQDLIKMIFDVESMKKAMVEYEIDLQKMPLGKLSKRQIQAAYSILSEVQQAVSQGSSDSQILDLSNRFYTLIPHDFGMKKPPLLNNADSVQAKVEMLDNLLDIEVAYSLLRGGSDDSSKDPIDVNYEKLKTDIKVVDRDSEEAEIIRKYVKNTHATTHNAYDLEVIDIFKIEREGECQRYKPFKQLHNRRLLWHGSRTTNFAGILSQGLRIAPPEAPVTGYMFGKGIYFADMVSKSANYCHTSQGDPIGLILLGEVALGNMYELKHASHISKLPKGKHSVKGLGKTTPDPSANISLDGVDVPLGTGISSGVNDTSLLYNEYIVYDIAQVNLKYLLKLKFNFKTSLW
Description: The assay was performed in 96 well ELISA plates according to instructions provided with a commercially available PARS inhibition assay kit (Trevigen, Gaithersburg, Md.). Briefly, wells were coated with 1 mg/mL histone (50 μl/well) at 4° C. overnight. Plates were then washed four times with PBS and then blocked by adding 50 μl Strep-Diluent (supplied with the kit). After incubation (1 h, room temperature), the plates were washed four times with PBS. Appropriate dilutions of PARS inhibitors were combined with 2×PARS cocktail (1.95 mM NAD^+, 50 μM biotinylated NAD^+ in 50 mM TRIS pH 8.0, 25 mM MgCl2) and high specific activity PARS enzyme (both were supplied with the kit) in a volume of 50 μl. The reaction was allowed to proceed for 30 min at room temperature. After 4 washes in PBS, incorporated biotin was detected by peroxidase-conjugated streptavidin (1:500 dilution) and TACS Sapphire substrate.

TNF-alpha = experiment: LPS induced TNF production in mice in vivo; conditions: LPS 10 mg/kg i.p., plasma at 90 minutes, vehicle 6994.0
mice = experiment: Single high-dose streptozotocin model of diabetes; type: in vivo; conditions: 3 mg/kg i.p.; STZ 160 mg/kg; blood sugar 3 days later; STZ + Vehicle 320 ± 13, basal 153 ± 21
Description: PARS inhibitors and PARS deficiency are known to reduce the development of diabetes and the incidence of diabetic complications (Mabley et al., Br J Pharmacol. 2001, 133(6):909-9; and Soriano et al., Nat Med. 2001, 7(1):108-13). […] Briefly, 160 mg/kg streptozotocin was injected to mice treated with vehicle or with illustrative Isoquinoline Derivatives intraperitoneally (3 mg/kg) and 3 days later blood sugar levels were determined using a blood glucose meter.

rat = experiment: Rat model of middle cerebral artery occlusion/reperfusion; type: in vivo; conditions: 3 mg/kg/day i.p.
Description: Occlusion lasted for 2 hours, followed by reperfusion for 24 hours. Infarct size was quantified with tetrazolium staining. […] There was an approximately 80% reduction in the degree of cortical necrosis and neuronal death in the animals administered with 8l, when compared to vehicle-treated controls.

Row | Structure (SMILES) | inhibition at 0.1 µM (PARS) [%] | inhibition at 0.3 µM (PARS; 300 nM) [%] | inhibition at 1 µM (PARS) [%] | other results
1 | O=C(O)CCNC(=O)c1ccc2oc3c4ccccc4c(=O)[nH]c3c2c1 [Compound 26b] |  |  |  | % PARS inhibition at 100 nM (purified PARS enzyme): 21* %
2 | O=c1[nH]c2c(c3ccccc13)C(N1CCNCC1)c1ccccc1-2 (racemic) [Compound 5c, (±) 11-piperizin-5,6-dihydro-5-oxo-11H-indeno[1,2-c]isoquinoline] |  |  |  | % PARS inhibition at 100 nM (PARS): 0%; % PARS inhibition at 1 μM (PARS): 24%
3 | CN1CCN(C2c3ccccc3-c3[nH]c(=O)c4ccccc4c32)CC1 (racemic) [Compound 5d, (±) 11-(N-methylpiperazin)-5,6-dihydro-5-oxo-11H-indeno[1,2-c]isoquinoline] |  |  |  | % PARS inhibition at 1 μM (PARS): 48%
4 | CN(C)CCN(CCN(C)C)S(=O)(=O)c1ccc2c(c1)Cc1c-2[nH]c(=O)c2ccccc12 [Compound 8q, 9-[N,N-di-(2-[N,N-dimethylamino]ethyl)-aminosulphonyl]-5,6-dihydro-5-oxo-11H-indeno-[1,2-c]isoquinoline] | 20 | 28 |  | 
5 | O=c1[nH]c2c3ccccc3[nH]c2c2ccccc12 [Compound 31, 6H,11H-Indole-[3,2-C]-Isoquinoline-5-one] |  |  |  | % PARS inhibition at 100 nM (PARS): 18%
6 | O=c1[nH]c2c(c3ccccc13)Cc1cc(S(=O)(=O)N3CCC[C@H]3CO)ccc1-2 [Compound 8e, 9-[N-(2-hydroxyprolinyl)sulphonyl]-5,6-dihydro-5-oxo-11H-indeno[1,2-c]isoquinoline] |  |  |  | % PARS inhibition at 300 nM (PARS; 300 nM): 68%
7 | O=c1[nH]c2c3ccc(S(=O)(=O)O)cc3n(S(=O)(=O)O)c2c2ccccc12 [Compound 34] |  |  |  | % PARS inhibition at 100 nM (purified PARS enzyme): 14* %; % PARS inhibition at 300 nM (purified PARS enzyme; 300 nM): 33* %
8 | COc1cccc2c1oc1c3ccccc3c(=O)[nH]c21 [Compound 22d] |  |  |  | inhibition at 1 µM (purified PARS enzyme; 1 μM): 13%
9 | CCN(CC)CCN(CCN(CC)CC)S(=O)(=O)c1ccc2c(c1)Cc1c-2[nH]c(=O)c2ccccc12 [Compound 8p, 9-[N,N-di-(2-[N,N-diethylamino]ethyl)-aminosulphonyl]-5,6-dihydro-5-oxo-11H-indeno-[1,2-c]isoquinoline] | 27 | 45 |  | TNF (TNF-alpha; 0.1 mg/kg i.p. pretreatment): 4470 pg/mL; TNF (TNF-alpha; 1.0 mg/kg i.p. pretreatment): 5090 pg/mL; Glucose (mice): 264 ± 24 mg/dL
10 | O=c1[nH]c2c(c3ccccc13)Cc1cc(S(=O)(=O)NCCCN3CCOCC3)ccc1-2 [Compound 8l, 9-[N-(3-[morpholino-4-yl]propyl)-aminosulphonyl]-5,6-dihydro-5-oxo-11H-indeno-[1,2-c]isoquinoline] |  |  |  | functional benefit (rat): neurological improvements
11 | NS(=O)(=O)c1ccc2c3[nH]c(=O)c4ccccc4c3n(S(N)(=O)=O)c2c1 [Compound 35a, 6H,11H-Indole-[3,2-C]-Isoquinoline-5-one-9,11-disulfonamide] |  |  |  | % PARS inhibition at 100 nM (PARS): 14%; % PARS inhibition at 1 μM (PARS): 75%
12 | O=c1[nH]c2c(c3ccccc13)Cc1cc(S(=O)(=O)NCCN3CCOCC3)ccc1-2 [Compound 8j, 9-[N-(2-[morpholino-4-yl]ethyl)-aminosulphonyl]-5,6-dihydro-5-oxo-11H-indeno[1,2-c]isoquinoline] |  |  |  | Glucose (mice): 253 ± 24

Second part, led by results:

Row | inhibition at 0.1 µM (PARS) [%] | inhibition at 0.3 µM (PARS; 300 nM) [%] | inhibition at 1 µM (PARS) [%] | Structure (SMILES) | other results
13 | 63 | 66 | 63 | O=c1[nH]c2c3cccc(O)c3oc2c2ccccc12 [Compound 23c] | 
14 | 51 |  | 81 | O=c1[nH]c2c3ccccc3oc2c2ccccc12 [Compound 22a] | 
15 | 38 | 56 | 53 | Cc1ccc2oc3c4ccccc4c(=O)[nH]c3c2c1 [Compound 22e] | 
16 | 62 | 66 | 83 | COc1ccc2c(c1)oc1c3ccccc3c(=O)[nH]c21 [Compound 22c] | 
17 |  | 23 | 27 | O=C(O)c1ccc2oc3c4ccccc4c(=O)[nH]c3c2c1 [Compound 22f] | 
18 |  | 23 | 27 | O=C(O)c1ccc2c(c1)oc1c3ccccc3c(=O)[nH]c21 [Compound 22g] | 
